# According to PubChem BioAssay AID1417 (Emory University Molecular Libraries Screening Center, 2008):
# Molecular target: Induced myeloid leukemia cell differentiation protein Mcl-1 (Homo sapiens) (UniProt Q07820)
# Assay: Mcl-1 Noxa peptide disruption concentration-response – biochemical, TR-FRET, dose response (AID 1417)
# Settings: Mcl-1/Noxa peptide interaction, cell-free TR-FRET (terbium/rhodamine), 2 h; measured here: absolute IC50
# Induced myeloid leukemia cell differentiation protein Mcl-1 (Homo sapiens), sequence (Q07820 whole entry, looked up): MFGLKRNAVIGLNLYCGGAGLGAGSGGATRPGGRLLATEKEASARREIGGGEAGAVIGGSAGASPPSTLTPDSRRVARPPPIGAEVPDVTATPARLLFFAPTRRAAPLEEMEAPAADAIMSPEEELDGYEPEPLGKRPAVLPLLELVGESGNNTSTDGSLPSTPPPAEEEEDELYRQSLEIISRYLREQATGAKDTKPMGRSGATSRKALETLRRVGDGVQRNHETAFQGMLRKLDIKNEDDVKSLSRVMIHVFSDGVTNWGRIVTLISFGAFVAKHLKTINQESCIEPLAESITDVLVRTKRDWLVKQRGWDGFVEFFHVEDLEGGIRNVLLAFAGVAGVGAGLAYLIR
row,IC50 [µM],Compound
1,< 0.4,Cc1cc(C)c(S(=O)(=O)/N=C2/C=C(SCC(=O)O)C(=O)c3ccccc32)cc1C
2,5.16,COc1cc(C2C(C#N)=C(N)OC3=C2C(=O)CCC3)c([N+](=O)[O-])cc1OC (configuration not stated)
3,> 54,CCOC(=O)CC1=CSC2=NS(=O)(=O)CCN12
4,< 0.4,CCOC(=O)c1c(OCC)[nH]c2c1cc(O)c1ccccc12
5,< 0.4,CN(C)c1ccc(/C=N/NC(=O)c2cccc(C(=O)N/N=C/c3ccc(N(C)C)cc3)n2)cc1
6,1.97,COc1cc(/C=C2\SC(=S)NC2=O)ccc1OS(=O)(=O)c1ccccc1
7,4.06,CN1CCN(CCCN2c3ccccc3Sc3ccc(Cl)cc32)CC1
8,< 0.4,CN=c1scc(-c2cccs2)n1/N=C/c1ccc(O)c(O)c1O
9,> 54,Cc1c(NS(=O)(=O)c2cc(NC(=O)CCN3CCCC(C)C3)ccc2Cl)c(=O)n(-c2ccccc2)n1C (configuration not stated)
10,1.07,Cc1ccc2c(c1C)NC(C(=O)O)C1CC=CC21 (configuration not stated)
11,> 54,COc1ccccc1N1C(=O)C(Cl)=C(Nc2ccccc2O)C1=O
12,> 54,Cc1ccc(C(=O)OCC(=O)Nc2ccc(N(C)C)cc2)cc1NC(=O)c1ccco1
13,< 0.4,CN1CCc2cccc3c2[C@H]1Cc1ccc(O)c(O)c1-3
14,> 54,CCC1CCCCN1S(=O)(=O)c1ccc(S(=O)(=O)N(Cc2ccccn2)CC2CCCO2)cc1 (configuration not stated)
15,< 0.4,Nc1c(C(=O)NC2CC2)sc2nc3c(c(-c4ccco4)c12)CC/C3=C/c1ccco1
16,< 0.4,O=C1NC(=S)S/C1=C\C=C\c1ccc([N+](=O)[O-])o1
17,> 54,CCN(c1ccc(NC(=O)COC(=O)c2cc3ccccc3oc2=O)cc1)C(C)C
18,1.66,COc1ccc(-c2ccc(/C=C3/C(=N)N4C=CSC4=NC3=O)o2)c([N+](=O)[O-])c1
19,1.3,Cc1nc2ccc(NC(=O)c3cc([N+](=O)[O-])cc([N+](=O)[O-])c3Cl)cc2s1
20,> 54,COc1cc(/C=N/NC(=O)c2ccc([N+](=O)[O-])cc2Cl)cc(Br)c1O
21,< 0.4,Cc1ccc2c(c1)C1C=CCC1C(C(=O)O)N2 (configuration not stated)

# Second part, the compound before the results:
row,Compound,IC50 [µM]
1,O=C(CSc1nnc(-c2ccco2)c(-c2ccco2)n1)c1ccccc1,3.7
2,COc1ccc(C(=O)Nc2nc3c(s2)Cc2cc(OC)ccc2-3)cc1,4.11
3,CN1C(=O)/C(=C2\SC(=S)N(CCCCCC(=O)O)C2=O)c2ccccc21,2.85
4,CC1=C(SCCC#N)S/C(=C2\SC(C)=C(SCCC#N)S2)S1,2.71
5,Oc1ccc(/C=N/n2cc(-c3ccccc3)[nH]c2=S)cc1,< 0.4
6,CN(C)c1ccc(NC(=O)c2cccc(N3C(=O)C4C5C=CC(C5)C4C3=O)c2)cc1 (configuration not stated),> 54
7,CC(/C=N\Nc1nnc2c(n1)[nH]c1c(C)cccc12)=C\c1ccco1,3.57
8,COc1ccc(C(=O)c2sc3nc(-c4ccc(OC)cc4)ccc3c2N)cc1,> 54
9,Cc1ccc(-c2cc(C(=O)N3CCN(c4ncccn4)CC3)c3cc(Br)ccc3n2)o1,3.78
10,O=C(O)c1ccc(N/N=C/c2ccc(OC(=O)c3cccc(Cl)c3)cc2)cc1,7.31
11,Cc1cc2nc(-c3ccc(SCC(=O)N4CCN(C(=O)c5ccco5)CC4)nc3)[nH]c2cc1C,4.16
12,Cc1ccc(-n2c(O)c(C=Nc3ccccc3-c3n[nH]c(=S)[nH]c3=O)c3ccccc3c2=O)cc1C,2.75
13,CC(/C=C1\SC(=S)N(NS(=O)(=O)c2ccc(C)cc2)C1=O)=C\c1ccccc1,5.66
14,CC(=O)c1cc(C#N)c(SCc2ccccn2)nc1C,> 54
15,CCCCCCCCCCCCCCCC[n+]1cccc2ccccc21,5.34
16,O=C(NCC1CCCO1)c1ccc(Cn2c(=S)[nH]c3ccccc3c2=O)cc1 (configuration not stated),> 54
17,COc1cccc(-n2c(SCc3cc(=O)oc4cc(O)c(O)cc34)nc3ccccc3c2=O)c1,2.18
18,O=C1NN(c2ccccc2)C(=O)/C1=C\c1ccc(-c2cc([N+](=O)[O-])ccc2O)o1,9.71
19,COc1ccc2[nH]c3c(=O)n(Cc4ccc(C(=O)N5CCCC5)cc4)c(=S)[nH]c3c2c1,> 54
20,O=C(NCCCO)c1ccc2nc(-c3ccco3)c(-c3ccco3)nc2c1,> 54
21,Cc1ccc(C)c(S(=O)(=O)Nc2cc(SCC(=O)O)c(O)c3ccccc23)c1,< 0.4
